Data: US11098040B2, “Compounds and methods of use” (Ferro Therapeutics, Inc., priority 2018, dated 2021)
Read-outs that look alike come from different tables or passages of the source.

Key:
SJSA-1 = assay: Cell proliferation (Alamar Blue) assay, SJSA-1 osteosarcoma, with/without ferrostatin; format: cell-based, human; settings: Homo sapiens
In short: (§1)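 Cells seeded at 5000/well, 16-24 h, then exposed 24 h at 37° C to compound, 10-0.0005 μM in 3-fold dilutions, 1% DMSO final. Alamar Blue fluorescence (ex 540/em 590 nm) read after 1.5 h; IC50 from variable-slope sigmoidal fit.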

786-O = assay: Cell proliferation (Alamar Blue) assay, 786-O renal cell carcinoma, with/without ferrostatin; format: cell-based; settings: Homo sapiens
In short: as §1

A431 = assay: Cell proliferation (Alamar Blue) assay, A431; format: cell-based; settings: Homo sapiens, A-431; Cell Line A431
Procedure: Cells (SJSA-1, 786-O and A431) were seeded (5000 cells/100 μL/well) in 96-well tissue culture plate and incubated at 37° C./5% CO2 for 16-24 hours. The cells were then treated with compounds (25 μL of 5×). The compound concentrations were 10-0.0005 μM prepared in 3-fold serial dilutions with final DMSO concentration of 1%. The plates were then incubated for 24 h at 37° C./5% CO2 in a moist environment. Then Alamar Blue™ reagent (final concentration 1×-12.5 μL) was added to each well and incubated for 1.5 hours at 37° C./5% CO2. The plates were read on fluorescence reader at 540 nm excitation and 590 nm emission wavelengths. The IC50 values were subsequently determined using a sigmoidal dose-response curve (variable slope) in GraphPad Prism® 5 software.
The cell proliferation assays for the compounds shown Table 25 was performed according to the protocols described herein, including Examples 4 and 6.

[1] = SJSA-1, 24 h, Alamar Blue, 24 h, 2 μM ferrostatin, read-out: SJSA-1 (IC50, μM) 2 μM Ferrostatin
[2] = SJSA-1, 24 h, Alamar Blue, 24 h, without ferrostatin, read-out: SJSA-1 (IC50, μM) Without Ferrostatin
[3] = SJSA-1, Cell Line SJSA-1, read-out: IC50
[4] = 786-0, 24 h, Alamar Blue, 24 h, 2 μM ferrostatin, read-out: 786-O (IC50, μM) 2 μM Ferrostatin
[5] = 786-0, 24 h, Alamar Blue, 24 h, without ferrostatin, read-out: 786-O (IC50, μM) Without Ferrostatin
[6] = 786-0, Cell Line 786-O, read-out: IC50

SMILES	IC50 (SJSA-1; [1])	IC50 (SJSA-1; [2])	IC50 (SJSA-1; [3])	IC50 (786-O; [4])	IC50 (786-O; [5])	IC50 (786-O; [6])	IC50 (A431)
C[C@H]1Cc2c([nH]c3ccccc23)[C@H](c2ccc3c(c2)CNC3=O)N1C(=O)CCl [Compound 168, 5-((1S,3S)-2-(2-chloroacetyl)-3-methyl-2,3,4,9-tetrahydro-1H-pyrido[3,4-b]indol-1-yl)isoindolin-1-one]	> 10 µM	0.56 µM	0.56 µM	3.31 µM	0.487 µM	0.487 µM	5090 nM
C#CC(=O)N1[C@@H](CCCC)Cc2c([nH]c3ccc(F)cc23)[C@@H]1c1ccc(S(=O)(=O)NC2CCC2)cc1 [Compound 143, 4-((1S,3S)-3-butyl-6-fluoro-2-propioloyl-2,3,4,9-tetrahydro-1H-pyrido[3,4-b]indol-1-yl)-N-cyclobutylbenzenesulfonamide]			0.009 µM			0.009 µM	2700 nM
C[C@H]1Cc2c([nH]c3ccccc23)[C@H](c2ccc(N3CC4(COC4)C3)cc2)N1C(=O)CCl [Compound 213, 1-((1S,3S)-1-(4-(2-oxa-6-azaspiro[3.3]heptan-6-yl)phenyl)-3-methyl-1,3,4,9-tetrahydro-2H-pyrido[3,4-b]indol-2-yl)-2-chloroethan-1-one]	4.79 µM	0.066 µM	0.066 µM	5.62 µM	0.066 µM	0.066 µM	1850 nM
C[C@H]1Cc2c([nH]c3ccccc23)[C@H](c2ccc(CN3CCOCC3)cc2)N1C(=O)CCl [Compound 132]			6.8 µM			3.8 µM	6000 nM
C#CC(=O)N1[C@@H](CCCC)Cc2c([nH]c3ccccc23)[C@@H]1c1ccc(S(=O)(=O)NC2CC2)cc1F [Compound 167, 4-((1S,3S)-3-butyl-2-propioloyl-2,3,4,9-tetrahydro-1H-pyrido[3,4-b]indol-1-yl)-N-cyclopropyl-3-fluorobenzenesulfonamide]	4.01 µM	0.011 µM	0.011 µM	2 µM	0.005 µM	0.005 µM	1930 nM
C#CC(=O)N1[C@@H](c2ccc(S(=O)(=O)NC3CC3)cc2F)c2[nH]c3ccc(OC)cc3c2C[C@@H]1C [Compound 165, N-cyclopropyl-3-fluoro-4-((1S,3S)-6-methoxy-3-methyl-2-propioloyl-2,3,4,9-tetrahydro-1H-pyrido[3,4-b]indol-1-yl)benzenesulfonamide]	3.77 µM	0.119 µM	0.119 µM	4.79 µM	0.047 µM	0.047 µM	3440 nM
C[C@H]1Cc2c([nH]c3ccccc23)[C@H](c2ccc(S(=O)(=O)N(C)C3CC3)cc2F)N1C(=O)CCl [Compound 170]	9.11 µM	0.062 µM	0.062 µM	8.09 µM	0.058 µM	0.058 µM	4190 nM
C#CC(=O)N1[C@@H](c2ccc(F)cc2)c2[nH]c3ccccc3c2C[C@@H]1C(=O)OC [Compound 146, methyl (1S,3R)-1-(4-fluorophenyl)-2-propioloyl-2,3,4,9-tetrahydro-1H-pyrido[3,4-b]indole-3-carboxylate]			0.03 µM			0.023 µM	2400 nM
C[C@H]1Cc2c([nH]c3ccccc23)C(c2ccc(-n3ccnc3)cc2)N1C(=O)CCl (stereo partly drawn) [Compound 163, 1-((3S)-1-(4-(1H-imidazol-1-yl)phenyl)-3-methyl-1,3,4,9-tetrahydro-2H-pyrido[3,4-b]indol-2-yl)-2-chloroethan-1-one]			> 10 µM			6.4 µM	> 10000 nM
C[C@H]1Cc2c([nH]c3ccc(F)cc23)[C@H](c2ccc(S(=O)(=O)NC3CC3)cc2F)N1C(=O)CCl (stereo in doubt) [Compound 164, 4-((1S,3S)-2-(2-chloroacetyl)-6-fluoro-3-methyl-2,3,4,9-tetrahydro-1H-pyrido[3,4-b]indol-1-yl)-N-cyclopropyl-3-fluorobenzenesulfonamide]	7.06 µM	0.013 µM	0.013 µM	6.34 µM	0.023 µM	0.023 µM	9940 nM
COc1ccc2[nH]c3c(c2c1)C[C@H](C)N(C(=O)CCl)[C@H]3c1ccc(S(=O)(=O)NC2CC2)cc1F [Compound 173, 4-((3S)-2-(2-chloroacetyl)-6-methoxy-3-methyl-2,3,4,9-tetrahydro-1H-pyrido[3,4-b]indol-1-yl)-N-cyclopropyl-3-fluorobenzenesulfonamide]	3.98 µM	0.034 µM	0.034 µM	3.95 µM	0.023 µM	0.023 µM	3670 nM
CCS(=O)(=O)N1CCN(c2ccc([C@H]3c4[nH]c5ccccc5c4C[C@H](C)N3C(=O)CCl)cc2)CC1 [Example 209]			0.019 µM				3280 nM
C[C@H]1Cc2c([nH]c3ccc(Cl)cc23)[C@H](c2ccc(S(=O)(=O)NC3CC3)cc2F)N1C(=O)CCl [Compound 172, 4-((1S,3S)-6-chloro-2-(2-chloroacetyl)-3-methyl-2,3,4,9-tetrahydro-1H-pyrido[3,4-b]indol-1-yl)-N-cyclopropyl-3-fluorobenzenesulfonamide]	4.1 µM	0.023 µM	0.023 µM	6.76 µM	0.023 µM	0.023 µM	2110 nM
C[C@H]1Cc2c([nH]c3ccccc23)[C@H](c2cnn(C3CCOCC3)c2)N1C(=O)CCl [Example 158]			1.4 µM				> 10000 nM
Cc1cc(N2CCOCC2)ccc1[C@@H]1c2[nH]c3ccccc3c2C[C@H](C)N1C(=O)CCl [Compound 128, 2-chloro-1-((1R,3S)-3-methyl-1-(2-methyl-4-morpholinophenyl)-1,3,4,9-tetrahydro-2H-pyrido[3,4-b]indol-2-yl)ethan-1-one]			0.184 µM			0.188 µM	> 10000 nM
C#CCOc1ccc2[nH]c3c(c2c1)C[C@H](C(=O)OC)N(C(=O)CCl)[C@H]3c1ccc(C(=O)NC23CC4CC(CC(C4)C2)C3)cc1 [Example 211]			0.011 µM				2730 nM
C[C@H]1Cc2c([nH]c3ccccc23)[C@H](c2ccc(C(=O)Nc3ccccn3)cc2)N1C(=O)CCl (single isomer, unassigned) [Compound 219]			0.036 µM			0.051 µM	1900 nM
CC1CN(c2ccc([C@H]3c4[nH]c5ccccc5c4C[C@H](C)N3C(=O)CCl)cc2)CCO1 (stereo partly drawn) [Compound 215]	9.41 µM	0.028 µM	0.028 µM	9.88 µM	0.018 µM	0.018 µM	8220 nM
C[C@H]1Cc2c([nH]c3ccccc23)C(c2ccc(S(N)(=O)=O)cc2)N1C(=O)CCl (stereo partly drawn) [Example 123]			4.7 µM				5400 nM
C#CC(=O)N1[C@@H](c2ccc(S(=O)(=O)NC3CC3)cc2F)c2[nH]c3ccc(Cl)cc3c2C[C@@H]1C [Compound 151]			0.037 µM			0.018 µM	5220 nM
C[C@H]1Cc2c([nH]c3ccccc23)[C@@H](c2cnn(C3CCOCC3)c2)N1C(=O)CCl [Example 159]			> 10 µM				7000 nM
C#CC(=O)N1[C@@H](COC)Cc2c([nH]c3ccccc23)[C@@H]1c1ccc(S(=O)(=O)NC2CC2)cc1F [Compound 144]			0.025 µM			0.007 µM	3500 nM
C[C@H]1Cc2c([nH]c3ccccc23)[C@H](c2ccncc2)N1C(=O)CCl [Example 171]			0.254 µM				8110 nM
C[C@H]1Cc2c([nH]c3ccccc23)[C@H](c2ccc(N3CCS(=O)(=O)CC3)cc2)N1C(=O)CCl [Compound 210, 2-chloro-1-((1S,3S)-1-(4-(1,1-dioxidothiomorpholino)phenyl)-3-methyl-1,3,4,9-tetrahydro-2H-pyrido[3,4-b]indol-2-yl)ethan-1-one]	9.55 µM	0.081 µM	0.081 µM	> 10 µM	0.062 µM	0.062 µM	1550 nM
C[C@H]1Cc2c([nH]c3ccccc23)[C@H](c2ccc(N3CCOCC3)nc2)N1C(=O)CCl [Example 220]			0.093 µM				10000 nM
COC[C@H]1Cc2c([nH]c3ccccc23)[C@H](c2ccc(N3CCOCC3)cc2)N1C(=O)CCl [Compound 232]			0.045 µM			0.025 µM	> 10000 nM
CC1CN(c2ccc([C@H]3c4[nH]c5ccccc5c4C[C@H](C)N3C(=O)CCl)cc2)CC(C)O1 (stereo partly drawn) [Example 212]						0.008 µM	2510 nM
CC1CN(c2ccc([C@@H]3c4[nH]c5ccccc5c4C[C@H](C)N3C(=O)CCl)cc2)CCO1 (stereo partly drawn) [Example 127]			> 10 µM				2800 nM
C#CC(=O)N1[C@@H](c2ccc(S(=O)(=O)NC3CC3)cc2F)c2[nH]c3ccccc3c2C[C@@H]1C [Example 174]			0.091 µM				2990 nM
